Reference: patent US11401243B2, “Quinoline derived small molecule inhibitors of nicotinamide N-methyltransferase (NNMT) and uses thereof” (priority 2017, dated 2022)
Values joined by “and” are separate entries in the source; they are usually repeats but may differ in a detail not shown here. Equal values may be shown once.

Tests used:
[1] = system: 3T3-L1 pre-adipocytes cells; test: MTT cell viability assay; type: cell-based
Method: Cells were treated for 24 h with 0.1-600 μM NNMT inhibitors in cell culture media. A 24 h time point was chosen based on a previous report of using this time period for transfecting or treating 3T3-L1 cells with NNMT anti-sense oligonucleotides or a small molecule NNMT product inhibitor (1-MNA), respectively, for phenotypic measures. MTT (3-(4,5-dimethylthiazol-2-yl)-2,5-diphenyltetrazolium bromide) (ATCC; Manassas, Va., USA) was added to each well and assayed according to the manufacturer's instructions. Absorbance corresponding to the amount of formazan dye produced by treated cells was normalized to that produced by control (untreated) cells to calculate % viable cells in the treated samples.

[2] = system: differentiated adipocytes (3T3 cells); test: Quantitative measurement of selected metabolites (NA, SAM, SAH, NAD+) in cultured cells; type: cell-based
Method: Sample processing was performed as described above.

[3] = target: recombinant human DNMT1 enzyme (Homo sapiens, UniProt P26358); test: DNMT1 activity assay (radiometric); type: biochemical
[4] = target: recombinant human NAMPT enzyme (Homo sapiens, UniProt P43490); test: NAMPT activity assay (fluorometric); type: biochemical
[5] = target: T1, recombinant human SIRT-1 (NAD+-dependent) enzyme (Homo sapiens, UniProt Q96EB6); test: SIRT-1 activity assay (fluorometric); type: biochemical
T1 construct: Reaction Biology Corporation (ran the assay)
T1 sequence (Q96EB6 1-747): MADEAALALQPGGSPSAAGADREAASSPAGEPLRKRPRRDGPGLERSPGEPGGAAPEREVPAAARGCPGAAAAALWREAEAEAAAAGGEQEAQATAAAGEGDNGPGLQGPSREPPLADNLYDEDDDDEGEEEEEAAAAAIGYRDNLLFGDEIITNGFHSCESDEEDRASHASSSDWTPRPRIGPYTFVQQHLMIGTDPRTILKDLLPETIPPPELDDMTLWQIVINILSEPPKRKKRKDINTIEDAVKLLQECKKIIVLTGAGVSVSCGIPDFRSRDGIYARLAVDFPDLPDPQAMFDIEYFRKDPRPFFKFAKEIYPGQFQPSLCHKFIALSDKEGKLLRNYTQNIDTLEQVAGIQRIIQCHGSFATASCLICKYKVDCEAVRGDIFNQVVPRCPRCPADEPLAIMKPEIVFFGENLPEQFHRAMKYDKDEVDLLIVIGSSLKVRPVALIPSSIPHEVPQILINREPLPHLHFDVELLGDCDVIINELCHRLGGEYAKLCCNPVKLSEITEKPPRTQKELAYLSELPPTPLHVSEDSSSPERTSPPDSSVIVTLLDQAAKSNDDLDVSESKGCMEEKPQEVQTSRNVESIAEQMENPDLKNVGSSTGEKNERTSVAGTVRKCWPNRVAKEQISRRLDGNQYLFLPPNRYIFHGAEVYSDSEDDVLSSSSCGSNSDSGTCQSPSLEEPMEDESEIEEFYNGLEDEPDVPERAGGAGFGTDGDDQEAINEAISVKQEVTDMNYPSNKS

[6] = system: differentiating 3T3-L1 cells; test: Adipocyte differentiation / lipogenesis quantitated with oil red O staining; type: cell-based; conditions: for reduction of lipogenesis compared to control untreated adipocytes: oil red O
Method: On day 9 post-differentiation, cells were subjected to quantitative oil red O (Thermo Fisher Scientific; Waltham, Mass., USA) staining as adapted and modified from published protocols. Briefly, cells were washed twice with PBS, fixed with 10% formalin for 30 min at room temperature, and stained with oil red O working solution (˜0.2% oil red O in 99% isopropanol) for 30 min. Cells were then washed five times or with sterile water until unincorporated oil red O stain was completely removed. Images of oil red O staining in control and inhibitor-treated cells were digitally photographed using a light microscope (Olympus BX41; Tokyo, Japan). After image capture, 2-propanol (3.5 mL) was added to each dish for 10 min to dissolve the oil red O stain and absorbance was quantified in a plate reader set at 492 nm wavelength. To ensure the absorbance from oil red O staining was within the linear detection range of the plate reader, a calibration curve was established for oil red O staining in adipocytes using a previously described protocol.

human NNMT (mt-hNNMT) = target: T2, human NNMT (mt-hNNMT) (Homo sapiens, UniProt P40261, E101A/E103A/K100A); test: NNMT activity assay (HPLC-UV detection of MNA), NNMT IC50 curves; conditions: NNMT IC50
T2 sequence (P40261 1-261 K100A/E101A/E103A limits assumed): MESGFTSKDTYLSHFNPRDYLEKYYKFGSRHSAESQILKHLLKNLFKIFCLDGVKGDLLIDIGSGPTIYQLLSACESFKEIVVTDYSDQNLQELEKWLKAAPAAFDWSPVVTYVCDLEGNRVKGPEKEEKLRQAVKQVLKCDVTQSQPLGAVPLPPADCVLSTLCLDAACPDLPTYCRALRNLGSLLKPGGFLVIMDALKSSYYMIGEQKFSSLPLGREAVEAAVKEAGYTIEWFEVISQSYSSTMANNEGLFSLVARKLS

Chain of recombinant human NAMPT enzyme (P43490 whole entry): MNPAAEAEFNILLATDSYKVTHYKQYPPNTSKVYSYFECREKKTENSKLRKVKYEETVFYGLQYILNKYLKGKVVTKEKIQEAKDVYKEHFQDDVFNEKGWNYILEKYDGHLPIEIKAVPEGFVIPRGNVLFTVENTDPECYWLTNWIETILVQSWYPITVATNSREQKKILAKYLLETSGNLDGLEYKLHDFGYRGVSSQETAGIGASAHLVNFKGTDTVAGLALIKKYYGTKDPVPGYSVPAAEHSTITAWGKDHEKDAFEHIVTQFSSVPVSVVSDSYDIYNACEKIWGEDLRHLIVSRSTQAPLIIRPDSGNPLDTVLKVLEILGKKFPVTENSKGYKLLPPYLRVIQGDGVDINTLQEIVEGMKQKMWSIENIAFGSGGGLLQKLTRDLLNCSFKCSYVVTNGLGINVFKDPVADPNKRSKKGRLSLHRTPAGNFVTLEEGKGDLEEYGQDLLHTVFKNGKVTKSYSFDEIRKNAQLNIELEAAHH
Chain of recombinant human DNMT1 enzyme (P26358 whole entry): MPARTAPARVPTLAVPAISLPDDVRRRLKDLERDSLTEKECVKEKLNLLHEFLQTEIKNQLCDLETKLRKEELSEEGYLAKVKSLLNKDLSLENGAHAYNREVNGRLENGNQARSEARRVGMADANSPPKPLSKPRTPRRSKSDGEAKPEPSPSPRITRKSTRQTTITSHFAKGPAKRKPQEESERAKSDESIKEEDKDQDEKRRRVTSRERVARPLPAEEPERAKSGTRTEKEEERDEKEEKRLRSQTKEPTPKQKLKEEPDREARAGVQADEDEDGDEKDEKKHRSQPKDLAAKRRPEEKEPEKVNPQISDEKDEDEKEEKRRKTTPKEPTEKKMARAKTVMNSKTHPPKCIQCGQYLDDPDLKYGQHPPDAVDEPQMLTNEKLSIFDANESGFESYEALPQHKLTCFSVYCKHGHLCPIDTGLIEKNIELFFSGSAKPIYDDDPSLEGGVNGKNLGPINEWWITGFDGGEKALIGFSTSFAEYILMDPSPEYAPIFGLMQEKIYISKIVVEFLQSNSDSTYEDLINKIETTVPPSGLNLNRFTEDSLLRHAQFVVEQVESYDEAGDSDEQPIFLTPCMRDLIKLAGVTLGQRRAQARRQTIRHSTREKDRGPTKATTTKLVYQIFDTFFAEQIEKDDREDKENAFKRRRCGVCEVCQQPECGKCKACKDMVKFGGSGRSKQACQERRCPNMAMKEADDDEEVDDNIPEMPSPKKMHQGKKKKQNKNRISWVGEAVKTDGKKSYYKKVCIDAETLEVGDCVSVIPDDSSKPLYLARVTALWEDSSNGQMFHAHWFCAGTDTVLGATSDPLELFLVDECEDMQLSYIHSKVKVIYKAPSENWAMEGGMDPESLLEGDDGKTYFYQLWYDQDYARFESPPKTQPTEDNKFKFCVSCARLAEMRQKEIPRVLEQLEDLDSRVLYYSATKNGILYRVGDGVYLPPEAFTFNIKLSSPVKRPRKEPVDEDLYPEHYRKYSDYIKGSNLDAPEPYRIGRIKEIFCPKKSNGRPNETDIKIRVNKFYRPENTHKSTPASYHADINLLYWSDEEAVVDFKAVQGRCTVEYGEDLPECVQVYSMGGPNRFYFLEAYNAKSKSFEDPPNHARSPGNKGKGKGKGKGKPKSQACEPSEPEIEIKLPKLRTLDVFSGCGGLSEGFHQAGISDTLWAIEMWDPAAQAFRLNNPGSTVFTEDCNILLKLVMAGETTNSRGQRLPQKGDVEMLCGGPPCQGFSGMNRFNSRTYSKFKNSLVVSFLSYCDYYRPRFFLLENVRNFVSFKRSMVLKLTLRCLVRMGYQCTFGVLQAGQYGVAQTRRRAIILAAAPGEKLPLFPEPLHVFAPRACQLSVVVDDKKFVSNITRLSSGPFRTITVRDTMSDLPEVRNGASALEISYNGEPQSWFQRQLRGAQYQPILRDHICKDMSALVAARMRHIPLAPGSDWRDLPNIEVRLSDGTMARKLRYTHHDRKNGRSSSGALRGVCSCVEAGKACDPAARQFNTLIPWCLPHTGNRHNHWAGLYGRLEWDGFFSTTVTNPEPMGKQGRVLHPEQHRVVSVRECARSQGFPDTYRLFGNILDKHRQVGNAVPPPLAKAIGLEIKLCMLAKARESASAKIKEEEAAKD

Q: With `C[n+]1cccc2c(N)cccc21` [1j, 5-amino-1-methylquinolin-1-ium iodide] as the compound, how does the cell viability ([1]; 3T3-L1 pre-adipocytes, 10 μM, 24 h) read?
A: Its cell viability is “did not impact cell viability”.

Q: What about the cytotoxicity ([1]; 3T3-L1 pre-adipocytes, 600 μM (highest concentration tested), 24 h) of the same compound?
A: Its cytotoxicity is roughly 40%.

Q: And the “cytotoxicity relative to untreated cells” value ([1]; 3T3-L1 pre-adipocytes, 100-300 μM, 24 h)?
A: Its value is “modest cytotoxicity”.

Q: And the “3T3-L1 cell viability compared to untreated” value ([1]; highest tested concentration (0.1-60 μM range))?
A: Its value is “only slightly reduced”.

Q: What about the “NAD+ levels vs. control” value ([2]; 10 μM) of the same compound?
A: Its value is “significant increase”.

Q: And the “intracellular SAM levels relative to control adipocytes” value ([2]; 30 μM)?
A: The value was “significant increase”.

Q: And the “increase in NAD+ levels relative to control adipocytes” value ([2]; 1-60 μM)?
A: The value was 1.2-1.6 fold.

Q: And the “intracellular levels of NA” value ([2]; one-way ANOVA)?
A: The value was “no statistically significant main effect”.

Q: What about the “intracellular levels of SAH” value ([2]; one-way ANOVA) of the same compound?
A: Its value is “no statistically significant main effect”.

Q: And the “inhibition of DNMT1 (in words)” value ([3]; 10 nM to 200 μM (1,8-diMQ) or 600 μM (5-amino-1MQ))?
A: Its value is “did not inhibit”.

Q: And the IC50 ([3]; NI: no inhibition, read-out: IC50, DNA (cytosine-5)-methyltransferase 1)?
A: The IC50 was greater than 200000 nM.

Q: What about the IC50 ([4]; concentrations above 100 μM could not be tested (assay interference), read-out: IC50, Nicotinamide phosphoribosyl transferase) of the same compound?
A: Its IC50 is greater than 100000 nM.

Q: What about the “inhibition of NAMPT (in words)” value ([4]; up to 100 μM) of the same compound?
A: Its value is “did not inhibit”.

Q: And the “inhibition of SIRT1 (in words)” value ([5]; 10 nM-300 μM)?
A: Its value is “did not inhibit”.

Q: What about the “SIRT1 activity (in words)” value ([5]; 600 μM) of the same compound?
A: The value was “minor reduction in SIRT1 activity”.

Q: What about the “reduction of lipogenesis compared to control untreated adipocytes” value ([6]; 30 μM) of the same compound?
A: The value was 50%.

Q: What about the “reduction of lipogenesis compared to control untreated adipocytes” value ([6]; 60 μM) of the same compound?
A: The value was 70%.

Q: What about the “lipid accumulation in differentiating pre-adipocytes (in words)” value ([6]; 15, 30, 60 μM) of the same compound?
A: Its value is “concentration-dependent inhibition of lipid accumulation”.

Q: What about the IC50 (human NNMT (mt-hNNMT)) of the same compound?
A: Its IC50 is 1200 nM and ~1000 nM.
